Test results from patent publication US12570675B2, “Boronic acid compounds” (LG CHEM, LTD., priority 2020, dated 2026).

Key:
[1] = molecular target: Proteasome chymotrypsin-like activity (S26 protein from RPMI8226 cells) (Homo sapiens, UniProt P28074); assay type: biochemical; details: S26 protein from RPMI8226 cell extract 2 ug/well, substrate 20 uM, 37° C., 90 minutes; read-out: Proteasome chymotrypsin-like activity inhibition IC50
Procedure, shortened: (§1)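 Inhibition is measured in crude proteasome (S26) from RPMI8226 cells at 2 ug/well, using 20 uM substrate specific to each activity: Suc-LLVY-AMC for chymotrypsin-like, Z-LLE-AMC for caspase-like. Compounds span a dilution series from 10 uM.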

[2] = molecular target: Proteasome caspase-like activity (S26 protein from RPMI8226 cells) (Homo sapiens (Human), UniProt P28072); assay: Proteasome caspase-like activity inhibition (Z-Leu-Leu-Glu-AMC fluorogenic substrate, RPMI8226 cell extract); assay type: biochemical; details: S26 protein from RPMI8226 cell extract 2 ug/well, substrate 20 uM, 37° C., 90 minutes
Procedure, shortened: as §1

Chain of Proteasome caspase-like activity (S26 protein from RPMI8226 cells) (P28072 whole entry): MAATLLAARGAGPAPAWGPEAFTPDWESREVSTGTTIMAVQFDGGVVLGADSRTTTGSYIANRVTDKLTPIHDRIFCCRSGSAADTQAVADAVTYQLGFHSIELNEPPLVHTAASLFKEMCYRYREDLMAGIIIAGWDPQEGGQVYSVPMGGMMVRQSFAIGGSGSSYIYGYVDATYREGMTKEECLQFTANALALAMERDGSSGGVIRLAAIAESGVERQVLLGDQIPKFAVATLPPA
Chain of Proteasome chymotrypsin-like activity (S26 protein from RPMI8226 cells) (P28074 60-263 limits assumed): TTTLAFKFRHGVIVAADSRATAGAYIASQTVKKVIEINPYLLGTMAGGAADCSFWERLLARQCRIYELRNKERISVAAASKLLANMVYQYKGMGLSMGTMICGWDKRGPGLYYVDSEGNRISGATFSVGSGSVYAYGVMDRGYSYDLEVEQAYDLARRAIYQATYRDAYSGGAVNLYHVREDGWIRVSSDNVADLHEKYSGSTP

Row | Structure (SMILES) | IC50 [1] | IC50 [2]
1 | CC(C)C[C@H](NC(=O)C1CC([C@@H](NC(=O)c2cc(Cl)ccc2Cl)C(C)C)=NO1)B(O)O (stereo partly drawn) [Example 72, ((1R)-1-(3-((S)-1-(2,5-dichlorobenzamido)-2-methylpropyl)-4,5-dihydroisoxazol-5-carboxamido)-3-methylbutyl)boronic acid] | < 10 nM | > 100 nM
2 | CC(C)C[C@H](NC(=O)C1(Cc2ccccc2)CC(CNC(=O)c2cc(C(C)(C)C)nn2C(C)C)=NO1)B(O)O (stereo partly drawn) [Example 224, ((1R)-1-(5-benzyl-3-((3-(tert-butyl)-1-isopropyl-1H-pyrazol-5-carboxamido)methyl)-4,5-dihydroisoxazol-5-carboxamido)-3-methylbutyl)boronic acid] | < 10 nM | > 2500 nM
3 | Cc1ccccc1CC1(C(=O)N[C@@H](CC(C)C)B(O)O)CC(CNC(=O)c2nccc3ccccc23)=NO1 (stereo partly drawn) [Example 154, ((1R)-1-(3-((isoquinolin-1-carboxamido)methyl)-5-(2-methylbenzyl)-4,5-dihydroisoxazol-5-carboxamido)-3-methylbutyl)boronic acid] | < 10 nM | > 500 nM
4 | CC(C)C[C@H](NC(=O)C1(COc2ccccc2)CC(CNC(=O)c2nccc3ccccc23)=NO1)B(O)O (stereo partly drawn) [Example 126, ((1R)-1-(3-((isoquinolin-1-carboxamido)methyl)-5-(phenoxymethyl)-4,5-dihydroisoxazol-5-carboxamido)-3-methylbutyl)boronic acid] | < 10 nM | > 500 nM
5 | CC(C)C[C@H](NC(=O)C1(CCc2ccccc2)CC(CNC(=O)c2nccc3ccccc23)=NO1)B(O)O (stereo partly drawn) [Example 162, ((1R)-1-(3-((isoquinolin-1-carboxamido)methyl)-5-penetyl-4,5-dihydroisoxazol-5-carboxamido)-3-methylbutyl)boronic acid] | < 25 nM | > 1000 nM
6 | CC(C)C[C@H](NC(=O)C1(Cc2ccccc2)CC(CNC(=O)c2cccc3ccccc23)=NO1)B(O)O (stereo partly drawn) [Example 92, ((1R)-1-(3-((1-naphthamido)methyl)-5-benzyl-4,5-dihydroisoxazol-5-carboxamido)-3-methylbutyl)boronic acid] | < 10 nM | > 500 nM
7 | CC(C)[C@H](NC(=O)C1(Cc2ccccc2)CC(CNC(=O)c2ccccc2)=NO1)B(O)O (stereo partly drawn) [Example 294, ((1R)-1-(3-(benzamidomethyl)-5-benzyl-4,5-dihydroisoxazol-5-carboxamido)-2-methylpropyl)boronic acid] | < 10 nM | > 1000 nM
8 | Cc1cc(C(=O)NCC2=NOC(Cc3ccccc3)(C(=O)N[C@@H](CC(C)C)B(O)O)C2)n(-c2ccc(F)cc2)n1 (stereo partly drawn) [Example 247, ((1R)-1-(5-benzyl-3-((1-(4-fluorophenyl)-3-methyl-1H-pyrazol-5-carboxamido)methyl)-4,5-dihydroisoxazol-5-carboxamido)-3-methylbutyl)boronic acid] | < 10 nM | > 1000 nM
9 | Cc1nc(C(=O)NCC2=NOC(Cc3ccccc3)(C(=O)N[C@@H](CC(C)C)B(O)O)C2)c(Cl)s1 (stereo partly drawn) [Example 119, ((1R)-1-(5-benzyl-3-((5-chloro-2-methylthiazol-4-carboxamido)methyl)-4,5-dihydroisoxazol-5-carboxamido)-3-methylbutyl)boronic acid] | < 10 nM | > 1000 nM
10 | CC(C)C[C@H](NC(=O)C1CC(CNC(=O)c2cccc3ccccc23)=NO1)B(O)O (stereo partly drawn) [Example 64, ((1R)-1-(3-((1-naphthamido)methyl)-4,5-dihydroisoxazol-5-carboxamido)-3-methylbutyl)boronic acid] | < 10 nM | > 250 nM
11 | CC(C)C[C@H](NC(=O)C1(Cc2ccccc2)CC(CNC(=O)c2cccc3c2ccn3C(C)C)=NO1)B(O)O (stereo partly drawn) [Example 134, ((1R)-1-(5-benzyl-3-((1-isopropyl-1H-indol-4-carboxamido)methyl)-4,5-dihydroisoxazol-5-carboxamido)-3-methylbutyl)boronic acid] | < 10 nM | > 500 nM
12 | CC(C)C[C@H](NC(=O)C1(Cc2ccccc2)CC(CNC(=O)c2cccc3c2cnn3C)=NO1)B(O)O (stereo partly drawn) [Example 204, ((1R)-1-(5-benzyl-3-((1-methyl-1H-indazol-4-carboxamido)methyl)-4,5-dihydroisoxazol-5-carboxamido)-3-methylbutyl)boronic acid] | < 10 nM | > 500 nM
